The record followed here is patent US11407749B2, “Heterocyclic compounds as immunomodulators” (Incyte Corporation, priority 2015, dated 2022).

pIC50: −log10 of the molar value.

Chain of PD-1/PD-L1 protein/protein interaction (Q9NZQ7 19-238): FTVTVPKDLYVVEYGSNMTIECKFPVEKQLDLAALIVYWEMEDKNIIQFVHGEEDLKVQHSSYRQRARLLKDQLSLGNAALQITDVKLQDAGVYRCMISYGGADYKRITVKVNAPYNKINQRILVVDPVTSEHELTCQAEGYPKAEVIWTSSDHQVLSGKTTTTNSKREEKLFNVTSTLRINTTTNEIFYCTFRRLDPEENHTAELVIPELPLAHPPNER

This test has as its target PD-1/PD-L1 protein/protein interaction (Homo sapiens (Human), UniProt Q9NZQ7). In words: PD-1/PD-L1 Homogeneous Time-Resolved Fluorescence (HTRF) Binding Assay. The conditions noted are these: recombinant human PD-L1 (19-238)-His and PD-1 (25-167)-Fc, 25° C., PBS pH 7.4. As for the experimental part:
Example A. PD-1/PD-L1 Homogeneous Time-Resolved Fluorescence (HTRF) Binding Assay
The assays were conducted in a standard black 384-well polystyrene plate with a final volume of 20 μL. Inhibitors were first serially diluted in DMSO and then added to the plate wells before the addition of other reaction components. The final concentration of DMSO in the assay was 1%. The assays were carried out at 25° C. in the PBS buffer (pH 7.4) with 0.05% Tween-20 and 0.1% BSA. Recombinant human PD-L1 protein (19-238) with a His-tag at the C-terminus was purchased from AcroBiosystems (PD1-H5229). Recombinant human PD-1 protein (25-167) with Fc tag at the C-terminus was also purchased from AcroBiosystems (PD1-H5257). PD-L1 and PD-1 proteins were diluted in the assay buffer and 10 μL was added to the plate well. Plates were centrifuged and proteins were preincubated with inhibitors for 40 minutes. The incubation was followed by the addition of 10 μL of HTRF detection buffer supplemented with Europium cryptate-labeled anti-human IgG (PerkinElmer-AD0212) specific for Fc and anti-His antibody conjugated to SureLight®-Allophycocyanin (APC, PerkinElmer-AD0059H). After centrifugation, the plate was incubated at 25° C. for 60 min. before reading on a PHERAstar FS plate reader (665 nm/620 nm ratio). Final concentrations in the assay were […], 10 nM PD-L1, 1 nM europium anti-human IgG and 20 nM anti-His-Allophycocyanin. IC50 determination was performed by fitting the curve of percent control activity versus the log of the inhibitor concentration using the GraphPad Prism 5.0 software.
In general terms: TR-FRET usually uses a lanthanide donor and a delayed reading to cut background.
On to `Cc1c(-c2ccccc2)cccc1-c1cn2nc(CNCCO)ccc2n1` [Example 15, 2-({[2-(2-methylbiphenyl-3-yl)imidazo[1,2-b]pyridazin-6-yl]methyl}amino)ethanol], for which the pIC50 was 6.30 to 7.00.
On to `Cc1c(-c2ccccc2)cccc1-c1nc2c(CCCC#N)cc(CNCCO)cn2n1` [Example 23, 4-[6-{[(2-hydroxyethyl)amino]methyl}-2-(2-methylbiphenyl-3-yl)[1,2,4]triazolo[1,5-a]pyridin-8-yl]butanenitrile], for which the pIC50 was no less than 7.00.
`Cc1c(-c2ccccc2)cccc1-c1cc2cc(CN3CCCC[C@H]3C(=O)O)ccn2c1` [Example 3, (2S)-1-{[2-(2-methylbiphenyl-3-yl)indolizin-7-yl]methyl}piperidine-2-carboxylic acid]: the pIC50 is 6.30 to 7.00.
Under `N#Cc1c(-c2ccc3c(c2)OCCO3)cccc1-c1nc2c(C#N)cc(CNCCO)cn2n1` [Example 26, 2-[2-cyano-3-(2,3-dihydro-1,4-benzodioxin-6-yl)phenyl]-6-{[(2-hydroxyethyl)amino]methyl}[1,2,4]triazolo[1,5-a]pyridine-8-carbonitrile] stands no less than 7.00; under `Cc1c(-c2ccccc2)cccc1-c1cn2cc(CNCCO)cc(C)c2n1` [Example 9, 2-((8-methyl-2-(2-methylbiphenyl-3-yl)imidazo[1,2-a]pyridin-6-yl)methylamino)ethanol], 6.30 to 7.00; under `Cc1c(-c2ccccc2)cccc1-c1nc2cc(CN3CCCC[C@H]3C(=O)O)ccn2n1` [Example 17, (2S)-1-{[2-(2-methylbiphenyl-3-yl)[1,2,4]triazolo[1,5-a]pyridin-7-yl]methyl}piperidine-2-carboxylic acid], 6.30 to 7.00.
As for `COCCNc1cc(CNCCO)cn2nc(-c3cccc(-c4ccccc4)c3C)nc12` [Example 22, 2-({[8-[(2-methoxyethyl)amino]-2-(2-methylbiphenyl-3-yl)[1,2,4]triazolo[1,5-a]pyridin-6-yl]methyl}amino)ethanol], the figure is 6.30 to 7.00; as for `Cc1c(-c2ccccc2)cccc1-c1cn2cc(CN3CCCC[C@H]3C(=O)O)cc(C)c2n1` [Example 10, (S)-1-((8-methyl-2-(2-methylbiphenyl-3-yl)imidazo[1,2-a]pyridin-6-yl)methyl)piperidine-2-carboxylic acid], 6.30 to 7.00; as for `Cc1c(-c2ccccc2)cccc1-c1nc2cc(CNCCO)ccn2n1` [Example 16, 2-({[2-(2-methylbiphenyl-3-yl)[1,2,4]triazolo[1,5-a]pyridin-7-yl]methyl}amino)ethanol], no less than 7.00.
As to `N#Cc1c(-c2ccc3c(c2)OCCO3)cccc1-c1nc2c(Cl)cc(CNCCO)cn2n1` [Example 25, 2-(8-chloro-6-{[(2-hydroxyethyl)amino]methyl}[1,2,4]triazolo[1,5-a]pyridin-2-yl)-6-(2,3-dihydro-1,4-benzodioxin-6-yl)benzonitrile], the pIC50 was no less than 7.00.
As for `Cc1c(-c2ccccc2)cccc1-c1cc2cc(CN3CCCC[C@H]3C(=O)O)ncn2c1` [Example 4, (2S)-1-{[6-(2-methylbiphenyl-3-yl)pyrrolo[1,2-c]pyrimidin-3-yl]methyl}piperidine-2-carboxylic acid], the figure is 5.00 to 6.30.
As for `Cc1c(-c2ccccc2)cccc1-c1nc2ccc(CN3CCCC[C@H]3C(=O)O)cn2n1` [Example 19, (2S)-1-{[2-(2-methylbiphenyl-3-yl)[1,2,4]triazolo[1,5-a]pyridin-6-yl]methyl}piperidine-2-carboxylic acid], the pIC50 is 6.30 to 7.00.
As for `Cc1c(-c2ccccc2)cccc1-c1cn2cc(CNCCO)ccc2n1` [Example 1, 2-({[2-(2-methylbiphenyl-3-yl)imidazo[1,2-a]pyridin-6-yl]methyl}amino)ethanol], the figure is 6.30 to 7.00; as for `Cc1c(-c2ccccc2)cccc1-c1cc2cc(CNCCO)ccn2c1` [Example 2, 2-({[2-(2-methylbiphenyl-3-yl)indolizin-7-yl]methyl}amino)ethanol], 6.30 to 7.00.
As for `Cc1c(-c2ccccc2)cccc1-c1cn2nc(CNCC#N)cnc2n1` [Example 6, 2-((6-(2-methylbiphenyl-3-yl)imidazo[1,2-b][1,2,4]triazin-2-yl)methylamino)acetonitrile], the figure is 6.30 to 7.00.
Regarding `Cc1c(-c2ccccc2)cccc1-c1cn2nc(CNCC(N)=O)cnc2n1` [Example 7, 2-((6-(2-methylbiphenyl-3-yl)imidazo[1,2-b][1,2,4]triazin-2-yl)methylamino)acetamide], the pIC50 is 6.30 to 7.00.
Turning to `Cc1c(-c2ccccc2)cccc1-c1cn2cc(CNCCO)cnc2n1` [Example 12, 2-({[2-(2-methylbiphenyl-3-yl)imidazo[1,2-a]pyrimidin-6-yl]methyl}amino)ethanol], the pIC50 was 6.30 to 7.00.
`Cc1c(-c2ccccc2)cccc1-c1cn2nc(CNCCO)cnc2n1` [Example 5, 2-((6-(2-methylbiphenyl-3-yl)imidazo[1,2-b][1,2,4]triazin-2-yl)methylamino)ethanol]: the pIC50 is no less than 7.00.
Under `Cc1c(-c2ccccc2)cccc1-c1nc2c(Cl)cc(CNCCO)cn2n1` [Example 21, 2-({[8-chloro-2-(2-methylbiphenyl-3-yl)-[1,2,4]triazolo[1,5-a]pyridin-6-yl]methyl}amino)ethanol] stands no less than 7.00; under `Cc1c(-c2ccccc2)cccc1-c1cn2cc(CNCCO)cc(Cl)c2n1` [Example 11, 2-((8-chloro-2-(2-methylbiphenyl-3-yl)imidazo[1,2-a]pyridin-6-yl)methylamino)ethanol], 6.30 to 7.00.
For the compound `N#CCc1cc(CNCCO)cn2nc(-c3cccc(-c4ccc5c(c4)OCCO5)c3C#N)nc12` [Example 27, 2-(8-(cyanomethyl)-6-{[(2-hydroxyethyl)amino]methyl}[1,2,4]triazolo[1,5-a]pyridin-2-yl)-6-(2,3-dihydro-1,4-benzodioxin-6-yl)benzonitrile], the pIC50 is no less than 7.00.
Regarding `Cc1c(-c2ccccc2)cccc1-c1nc2c(CC#N)cc(CNCCO)cn2n1` [Example 24, [6-{[(2-hydroxyethyl)amino]methyl}-2-(2-methylbiphenyl-3-yl)[1,2,4]triazolo[1,5-a]pyridin-8-yl]acetonitrile], the pIC50 is no less than 7.00.
Under `Cc1c(-c2ccccc2)cccc1-c1nc2cc(CNCCO)nc(C)n2n1` [Example 20, 2-({[5-methyl-2-(2-methylbiphenyl-3-yl)[1,2,4]triazolo[1,5-c]pyrimidin-7-yl]methyl}amino)ethanol] stands no less than 7.00; under `Cc1c(-c2ccccc2)cccc1-c1nc2ccc(CNCCO)cn2n1` [Example 18, 2-({[2-(2-methylbiphenyl-3-yl)[1,2,4]triazolo[1,5-a]pyridin-6-yl]methyl}amino)ethanol], no less than 7.00; under `Cc1c(-c2ccccc2)cccc1-c1cn2nc(CN3CCCC[C@H]3C(=O)O)ccc2n1` [Example 14, (S)-1-((2-(2-methylbiphenyl-3-yl)imidazo[1,2-b]pyridazin-6-yl)methyl)piperidine-2-carboxylic acid], 5.00 to 6.30.
`Cc1c(-c2ccccc2)cccc1-c1cn2cc(CNCCO)ncc2n1` [Example 13, 2-({[2-(2-methylbiphenyl-3-yl)imidazo[1,2-a]pyrazin-6-yl]methyl}amino)ethanol]: the pIC50 is no less than 7.00.
Consider `Cc1c(-c2ccccc2)cccc1-c1cn2nc(CN(C)CCO)cnc2n1` [Example 8, 2-(methyl((6-(2-methylbiphenyl-3-yl)imidazo[1,2-b][1,2,4]triazin-2-yl)methyl)amino)ethanol], for which the pIC50 is 6.30 to 7.00.

Usually pIC50 stands for −log10 of the IC50, conventionally taken in molar units.
